For eleven compounds, IC50 results are on record in patent US6228866A, “Condensed piperidine compound” (Ono Pharmaceutical Co., Ltd., priority 1997, dated 2001).

For the test, the target named is T1, i-NOS (Homo sapiens, UniProt P35228).
T1 construct: The supernatant was collected as a source of i-NOS; endogenous in cells; host or cells: A549 (human lung epithelial cell line), stimulated with LPS, TNF-alpha, IL-1beta and IFN-gamma; sonicated, 54,000 rpm supernatant
Kind of test: i-NOS Inhibition Test. The format is biochemical. To be noted: i-NOS from supernatant of A549 cells stimulated with LPS, TNF-α, IL-1β, INF-γ; 14C-L-arginine substrate; 37° C., 10 minutes; pH 7.8. As to the method:
The pharmacological activity of the compound of formula (I) according to the present invention on i-NOS was examined by the following test.
To human lung epithelial cell line of A549 were added 10 μg/ml of lipopolysaccharide (LPS), 10 ng/ml of tumor necrosis factor-α (TNF-α), 5 ng/ml of interleukin-1β (IL-1β), and 100 ng/ml of interferon-γ (INF-γ). Sixteen hours later the cells were ruptured by ultrasonication and centrifuged at 54,000 rpm. The supernatant was collected as a source of i-NOS.
i-NOS was made to act on ^14 C-labeled L-arginine as a substrate, and L-citrulline produced in the presence of the compound of the invention was determined to calculate the 50% inhibitory concentration of the test compound. More specifically, 10 μl of a 16.8 μM solution of L-[U-^14 C]arginine, 10 μl of the above-prepared i-NOS source, and 10 μl of varied amount of a test compound were added to 70 μl of a solution comprising 50 mM HEPES (N-2-hydroxyethylpiperazine-N'-2-ethanesulfonic acid) (pH 7.8), 1 mM DTT (dithiothreitol), 1 mM NADPH (reduced nicotinamide adenine dinucleotide phosphate), 0.1 mM BH4 (tetrahydrobiopterin), 10 μM FAD (flavin adenine dinucleotide), and 500 units/ml of CaM (calmodulin), and the solution was made to 100 μl. After incubation at 37° C. for 10 minutes, 0.225 ml of a reaction terminating buffer consisting of 100 mM HEPES (pH 5.1 to 5.5) and 10 mM EDTA (ethylenediaminetetraacetic acid) was added while cooling with ice to cease the enzymatic reaction. The reaction solution was passed through a column packed with 0.25 ml of Dowex 50WX-8 (Na^+ form) to remove unreacted L-arginine and the column was washed with 0.45 ml of the reaction terminating buffer to collect an effluent containing L-citrulline. The radioactivity of the effluent was measured with a liquid scintillation counter, which was taken as NOS activity, from which a 50% inhibition concentration of the test compound was obtained.
As a reminder, the IC50 is the concentration that inhibits the measured activity by half. Low readings indicate higher potency, high ones lower potency. `C[C@H]1CC(=N)N[C@H]2[C@@H]1C2(Cl)Cl` (relative stereo) [4 (a)] showed a half-inhibitory concentration (IC50) of 0.057 µM.
The same measure for `N=C1CC2(CCN1)CC2` [compound 7]: 0.2 µM; for `C[C@@H]1CC(=N)N[C@@]2(C)C[C@@H]12` (relative stereo) [3 (i)]: 0.13 µM.
`C[C@H]1[C@H]2NC(=N)C[C@H](C)[C@@H]12` (relative stereo) [2 (g)]: the IC50 came to 0.092 µM.
The compound `C[C@H]1CC(=N)N[C@@H]2[C@H](Cl)[C@@H]21` (relative stereo) [3 (c)] yielded a 50% inhibitory concentration (IC50) of 0.02 µM.
`C[C@H]1CC(=N)N[C@@H]2[C@H](Cl)[C@@H]21` [compound 3] had an IC50 of 0.012 µM.
The compound `C[C@@H]1CC(=N)N[C@@H]2C[C@H]12` (relative stereo) [3 (g)] showed an IC50 of 0.047 µM.
On to `C[C@@H]1CC(=N)N[C@H]2C[C@@H]12` [3 (f)], for which the IC50 is 0.18 µM.
Turning to `C[C@H]1CC(=N)N[C@H]2[C@@H]1C2(C)C` (relative stereo) [compound 1], the IC50 came to 0.22 µM.
Compound `C[C@H]1CC(=N)N[C@H]2[C@@H]1C2(Cl)Cl` (single isomer, unassigned) [compound 4] yielded an IC50 of 0.021 µM.
Consider `C[C@H]1CC(=N)N[C@@H]2C[C@H]12` (relative stereo) [3 (a)], for which it took 0.09 µM to reach half-maximal inhibition (IC50).
